Reference: patent US9011915B2, “Conveniently implantable sustained release drug compositions” (Ramscor, Inc., priority 2004, dated 2015)
Where two headings read alike, the source gives them in different places.

How the values were obtained:
[1] = In vivo release of rapamycin from TEAC formulation in vitreous cavity, LC-MS; parameters: species or system NZW rabbits; conditions: 5.0 mg rapamycin in 10:90 rapamycin:TEAC mixture
Method: Five (5.0) mg rapamycin contained in a 10:90 rapamycin:TEAC mixture were injected into the vitreous cavity of one eye in three 4.0-4.5 kg. NZW rabbits. Vitreous sampling was performed in each animal, and the concentration of released Rapamycin determined by liquid chromatography and mass spectrometry.

[2] = ingested 650 mg 2-ABA, cited from earlier work; for maximum synovial fluid levels / time of maximum synovial fluid levels: human knee
[3] = cited from earlier work
blood glucose levels = assay: Injected versus transdermal delivery of insulin, blood glucose levels; assay type: in vivo, mouse
Method: The comparison of injected versus transdermal delivery of several formulation of insulin was studied in a mouse model. One mg of porcine insulin was injected IP (intraperitoneal) into a mouse. […] One mg of porcine insulin mixed with 0.1 ml of tocopherol acetate was applied topically on the skin of a shaved mouse.
Porcine insulin (20 mg) was mixed in 199 mg/ml of tocopheryl acetate and formed a paste (or gel) which and was applied to the backs of shaved albino mice as follows: Mouse #1 was treated with 39.8 mg of insulin/tocopherol acetate paste, equaling 3.6 mg of insulin; mouse #2 was treated with 75.2 mg of insulin/tocopherol acetate paste, equaling 6.9 mg of insulin. Tail blood glucose levels were determined by Home Diagnostics, Inc. True Track smart system at intervals depicted in FIG. 22.

[4] = cited from earlier work; remark: listed apart in the source
[5] = cited from earlier work; remark: listed apart in the source
COX-1 and COC-2 enzymes = conditions: acetylation of COX enzymes, in the eye; cited from earlier work
[6] = In vivo release of dexamethasone from 25% dexamethasone in benzyl benzoate (DB) injected into posterior segment, vitreous humor HPLC; parameters: species or system rabbit; conditions: for mean vitreous level of dexamethasone: 25% formulation in benzyl benzoate
Method: Benzyl benzoate (BB) served as placebo.
The in vivo release of the DB composition was studied in twenty-four rabbits. Twenty-five μl of 25% DB was injected into the posterior segment of one eye of twelve animals and the contralateral eye received a placebo. Another twelve animals received 50 μl of the DB in one eye and 50 μl of the BB placebo in the second eye. Animals were euthanized at the appropriate time points and vitreous humor samples were removed surgically. Dexamethasone concentration was determined by high pressure liquid chromatography (HPLC) as described in Example 5.

[7] = 3:1 dexamethasone:ciprofloxacin in benzyl benzoate
Method: The vials for the release studies were labeled and the weight of each vial was recorded. To each vial was added 3-4 grams of 0.9% saline solution and the weight was recorded. Then the SRF was injected or placed at the bottom of the vial. The weight of the SRF was recorded. An additional amount of 0.9% saline solution was added to a total of 10 grams of saline. The resulting vial was kept in an incubator or water bath at 37° C. Samples were taken periodically to measure the release profile of dexamethasone or triamcinolone acetonide using a HPLC instrument. Sampling protocol was carried out according to the following procedure: Using a disposable pipette, 8 grams of the saline solution containing dexamethasone or triamcinolone acetonide was withdrawn carefully from each vial. 8 grams of 0.9% saline solution was then added to each vial. The vials were kept at 37° C. after sampling.
The HPLC analysis was carried out using a Beckman Gold Instrument with an autosampler. […] Calibrators and samples were injected onto a C18 column (Rainin, 250×4.6 mm) containing a guard column (C18, 4.6 mm×1 cm) and analyzed, respectively. […] The dexamethasone or triamcinolone acetonide (retention times, 6-4 minutes) concentration of each sample was calculated from the standard curve using the software of the Beckman Gold instrument.

[8] = continuously exceeded over an extended period of time; cited from earlier work
[9] = 1 mg porcine insulin injected IP
[10] = 1 mg porcine insulin mixed with 0.1 ml tocopherol acetate, injected IP

## CO[C@H]1C[C@@H]2CC[C@@H](C)[C@@](O)(O2)C(=O)C(=O)N2CCCC[C@H]2C(=O)O[C@H]([C@H](C)C[C@@H]2CC[C@@H](O)[C@H](OC)C2)CC(=O)[C@H](C)/C=C(\C)[C@@H](O)[C@@H](OC)C(=O)[C@H](C)C[C@H](C)/C=C/C=C/C=C/1C [Rapamycin, rapamycin]
[1]
  duration of release of Rapamycin: over five

## O=C(O)c1ccccc1O [2-HBA, 2-hydroxy benzoic acid]
[2]
  maximum synovial fluid levels: 14.5 µg/mL
  time of maximum synovial fluid levels: 21.9 min
  maximum plasma levels: 23 µg/mL
  time of maximum plasma levels: 10.9 min
[3]; after 120 hours
  2-HBA level: 5 µg/mL
[3]; in 20 hours
  2-HBA level: 20 µg/mL
[3]; within 6 hours
  2-HBA level, initial burst: 640 µg/mL

## porcine insulin: porcine insulin
Blood glucose levels; [9]
  recovery from hypoglycemia: never recovered
  time to precipitous drop in glucose level: one-half
Blood glucose levels; [10]
  recovery from hypoglycemia: did not recover
  time over which perceptible drop in glucose level was seen: up to 3 hours
Blood glucose levels; 1 mg porcine insulin mixed with 0.1 ml tocopherol acetate, topically on shaved skin
  time of lowest glucose level: 5.5 h
Blood glucose levels; transdermal insulin with tocopherol acetate
  slow recovery to pre-treatment glucose levels after: 24 to 48 h

## CC(=O)Oc1ccccc1C(=O)O [2-ABA, 2-acetyloxybenzoic acid]
[4]; ingestion of 0.650-1.3 g 2-ABA, humans
  combined 2-ABA/2-HBA levels in the plasma: 20 to 100 µg/mL
[4]; within 30 minutes
  fraction hydrolyzed to 2-HBA in the plasma: about 97%
[5]; initial level of 4 μg/ml
  time in which an initial level is halved in the vitreous: 1.5 to 2 h
[5]; rabbit eyes, at plasma levels of about 20-100 μg/ml
  concentration of 2-ABA/2-HBA in the vitreous: 5000 to 10000 ng/mL
COX-1 and COC-2 enzymes
  ID50: 0.9 to 9.0 µg/mL
[2]
  maximum synovial fluid levels: 2.5 µg/mL
  time of maximum synovial fluid levels: 19.4 min
  maximum plasma levels: 3.3 µg/mL
  time of maximum plasma levels: 7.7 min
  time until gone in the blood: 75 min

## C[C@@H]1C[C@H]2[C@@H]3CCC4=CC(=O)C=C[C@]4(C)[C@@]3(F)[C@@H](O)C[C@]2(C)[C@@]1(O)C(=O)CO [dexamethasone]
[6]; 25 μl injection, over a sixty day period
  mean vitreous level of dexamethasone: approximately 4.0 μg/ml
[6]; 50 μl, over a three-month period
  mean vitreous level of dexamethasone: approximately 8.0 μg/ml
[6]; high dose: 50 μl 25% DB (12 mg dexamethasone), Day 7 to Day 90
  mean concentration of released dexamethasone in vitreous humor: 5560 ng/mL
[6]; low dose: 25 μl 25% DB (6 mg dexamethasone), Day 7 to Day 60
  mean level of dexamethasone in vitreous humor: 2800 ng/mL
[6]; rabbit, vitreous humor, other: injected into the posterior segment of the eye, 6 mg, low dose: 25 μl 25% DB, end of the Day 7 to Day 60 period, read-out: mean level of dexamethasone in vitreous humor, declined to
  concentration at 60 day: 800 ng/mL
[6]; rabbit, vitreous humor, other: injected into the posterior segment of the eye, 12 mg, high dose: 50 μl 25% DB, by Day 90, read-out: mean level of dexamethasone in vitreous humor
  concentration at 90 day: 1850 ng/mL

## O=C(O)c1cn(C2CC2)c2cc(N3CCNCC3)c(F)cc2c1=O [ciprofloxacin]
[7]
  duration of release: sixty

## CC1(C)O[C@@H]2C[C@H]3[C@@H]4CCC5=CC(=O)C=C[C@]5(C)[C@@]4(F)[C@@H](O)C[C@]3(C)[C@]2(C(=O)CO)O1 [TA, triamcinolone acetonide]
[8]
  concentration above which harmful complications (glaucoma, cataracts, cytotoxicity) can arise: exceed 10 μg/ml
